Columns and labels:
[1] = system: ERK1/2 phosphorylation of p90RSK in HT29 cells; assay: pRSK MSD Assay in HT29 cells; type: cell-based; settings: Homo sapiens, HT-29, read-out: ERK1/ERK2 PRSK MSD HT29 EC50
Method in brief: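 Phospho-RSK level, read by electrochemiluminescence on RSK-antibody-coated MSD plates with a phospho-RSK/Sulfo-tag detection pair, reports cellular ERK1/2 activity. HT29 cells, kept overnight in 0.1% FBS medium, were exposed to compound for 120 min at 37° C before lysis.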

[2] = system: HT-29 cells (colorectal adenocarcinoma); assay: Inhibition of cancer cell proliferation, HT-29 (CellTiterGlo, 72 hours); type: cell-based; settings: Homo sapiens
Method: Measurement of Inhibition of Cancer Cell Proliferation (HT-29/Colorectal Adenocarcinoma)
The following protocol used an HT-29 cell line, which cell line is a model for colorectal adenocarcinoma. HT-29 cells were split and 3000 cells in 100 μl of growth medium were added per well of a flat-bottom 96-well plate. A two-fold test compound solution in serum-free RPM1640 was made, starting at 5,000 nM. Then, 3-fold serial dilutions were made across the plate from well 1 to well 11. Well 12, the last well in a row on the plate, was left as untreated control. 100 μl compound solutions were then transferred to the wells, so the total volume of media was 200 μl per well. Plates were returned to a 37° C. incubator, and the cells were cultured for 72 hours. To measure cell proliferation after 72 hours, media was discarded from the plates, 50 μl/well of fresh medium was added, and 50 μl CellTiterGlo solution was added (Promega Cat#G7573). The plate was covered with a dark lid and incubated for 10 min. A white sealing tape was applied to the bottom of the plate, and the plate was read in a luminescence plate reader. […] A 2-fold serial dilution was used to generate 8 cell densities from 50,000-390 cells per well in 50 μl media. 50 μl CellTiterGlo was added per well, and the plate was read in a luminescence plate reader after 10 min. The reading was plotted vs. cell number to generate a standard curve and the equation of the curve fit. The compound-treated sample luminescence readings were converted to cell numbers using the curve-fit equation. The percent of inhibition, using untreated control as 100% growth, was then calculated. GI50 was then calculated by GraphPad Prism.

MEK1 activated ERK1 = biological target: T1, MEK1 activated ERK1 (Homo sapiens, UniProt P27361); assay: Omnia continuous-read kinase assay for potency against MEK1 activated ERK1; type: biochemical; settings: MEK1 activated ERK1, ATP at KM; read-out: ERK1 Omnia WT ATP KM IC50
T1 construct: purchased Millipore (Billerica, Mass.) 14-439-K
T1 sequence (P27361 whole entry): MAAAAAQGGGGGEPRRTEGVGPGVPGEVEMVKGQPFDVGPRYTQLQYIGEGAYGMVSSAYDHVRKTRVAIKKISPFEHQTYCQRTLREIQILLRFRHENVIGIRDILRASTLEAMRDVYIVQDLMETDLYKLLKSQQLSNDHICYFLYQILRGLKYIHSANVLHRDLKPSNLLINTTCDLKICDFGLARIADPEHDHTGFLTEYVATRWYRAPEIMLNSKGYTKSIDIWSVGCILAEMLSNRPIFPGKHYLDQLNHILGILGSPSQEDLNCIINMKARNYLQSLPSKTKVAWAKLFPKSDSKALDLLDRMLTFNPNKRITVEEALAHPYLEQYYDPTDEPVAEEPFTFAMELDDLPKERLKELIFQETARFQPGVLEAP
Method in brief: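 Apparent IC50 came from initial reaction slopes (RFU vs time) plotted against log inhibitor with a variable-slope fit. Reactions were started with ERK1 (4 nM final) added to 50 μM ATP, roughly at its appKM, and 10 μM Sox-conjugated ST17 peptide in 20 mM Tris pH 7.5, 5 mM MgCl2. Fluorescence was monitored every 71 seconds.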

EC50 [1] | GI50 [2] | IC50 (MEK1 activated ERK1) | SMILES
101 to 500 nM | 101 to 500 nM | < 100 nM | C=CC(=O)Nc1cc(F)ccc1Nc1nc(N[C@@H]2CCC[C@H](C(N)=O)C2)ncc1C(F)(F)F (racemic) [Compound I-5, Rac-cis-3-((4-((2-acrylamido-4-fluorophenyl)amino)-5-(trifluoromethyl)pyrimidin-2-yl)amino)cyclohexanecarboxamide]
< 100 nM | 101 to 500 nM | < 100 nM | C=CC(=O)Nc1cc(F)ccc1Nc1nc(N[C@@H]2CCC[C@H](C(N)=O)C2)ncc1Cl (racemic) [Compound I-112, Rac-cis-3-((4-((2-acrylamido-4-fluorophenyl)amino)-5-chloropyrimidin-2-yl)amino)cyclohexanecarboxamide]
 | > 1000 nM | > 1000 nM | C=CC(=O)N[C@@H]1CCCC[C@H]1Nc1nc(Nc2cc(C(N)=O)ccc2C)ncc1C(N)=O (racemic) [Compound I-255, Rac-trans-4-((2-acrylamidocyclohexyl)amino)-2-((5-carbamoyl-2-methylphenyl)amino)pyrimidine-5-carboxamide]
 | > 1000 nM | > 1000 nM | C=CC(=O)N[C@@H]1CCCC[C@H]1Nc1nc(Nc2cc(C(=O)NOC)ccc2C)ncc1C(N)=O (racemic) [Compound I-256, Rac-trans-4-((2-acrylamidocyclohexyl)amino)-2-((5-(methoxycarbamoyl)-2-methylphenyl)amino)pyrimidine-5-carboxamide]
501 to 999 nM | 101 to 500 nM |  | C=CC(=O)Nc1ccccc1Nc1nc(N[C@@H]2CCC[C@H](C(N)=O)C2)ncc1Cl [Compound I-119, (1S,3R)-3-((4-((2-acrylamidophenyl)amino)-5-chloropyrimidin-2-yl)amino)cyclohexanecarboxamide]
101 to 500 nM | 101 to 500 nM |  | C=CC(=O)Nc1ccccc1Nc1nc(Nc2cc(C(N)=O)ccc2CC)ncc1Cl [Compound I-193, 3-((4-((2-acrylamidophenyl)amino)-5-chloropyrimidin-2-yl)amino)-4-ethylbenzamide]
< 100 nM | 101 to 500 nM |  | C=CC(=O)Nc1cc(F)ccc1Nc1nc(Nc2cc(C(N)=O)ccc2OC)ncc1Cl [Compound I-208]
 | > 1000 nM | 101 to 500 nM | C=CC(=O)Nc1ccccc1Oc1nc(Nc2ccc(N3CCC[C@@H]3C(N)=O)cc2OC)ncc1C(N)=O [Compound I-266, (R)-4-(2-acrylamidophenoxy)-2-((4-(2-carbamoylpyrrolidin-1-yl)-2-methoxyphenyl)amino)pyrimidine-5-carboxamide]

Second part, the molecule before the results:

SMILES | EC50 [1] | GI50 [2] | IC50 (MEK1 activated ERK1)
C=CC(=O)Nc1ccccc1Nc1nc(N[C@@H]2CCC[C@H](C(=O)NOCCO)C2)ncc1Cl (racemic) [Compound I-103, Rac-3-((4-((2-acrylamidophenyl)amino)-5-chloropyrimidin-2-yl)amino)-N-(2-hydroxyethoxy)-cis-cyclohexanecarboxamide] | 101 to 500 nM | < 100 nM | < 100 nM
C=CC(=O)N(C)c1ccccc1Nc1nc(N[C@@H]2CCC[C@H](C(N)=O)C2)ncc1Cl (racemic) [Compound I-105, Rac-cis-3-((5-chloro-4-((2-(N-methylacrylamido)phenyl)amino)pyrimidin-2-yl)amino)cyclohexanecarboxamide] | > 1000 nM | 501 to 999 nM | 501 to 999 nM
C=CC(=O)Nc1ccccc1Nc1nc(NC2CCN(C=O)CC2)ncc1C(F)(F)F [Compound I-11, N-(2-((2-((1-formylpiperidin-4-yl)amino)-5-(trifluoromethyl)pyrimidin-4-yl)amino)phenyl)acrylamide] | 101 to 500 nM | 101 to 500 nM | 101 to 500 nM
C=CC(=O)Nc1ccccc1Nc1nc(NC2CCN(C(C)=O)CC2)ncc1C(F)(F)F [Compound I-12, N-(2-((2-((1-acetylpiperidin-4-yl)amino)-5-(trifluoromethyl)pyrimidin-4-yl)amino)phenyl)acrylamide] | 101 to 500 nM | 101 to 500 nM | 101 to 500 nM
C=CC(=O)Nc1ccccc1Nc1nc(Nc2cc(C(=O)NOC)ccc2C#N)ncc1C(F)(F)F [Compound I-72, 3-((4-((2-Acrylamidophenyl)amino)-5-(trifluoromethyl)pyrimidin-2-yl)amino)-4-cyano-N-methoxybenzamide] |  | > 1000 nM | 101 to 500 nM
C=CC(=O)Nc1ccccc1Nc1nc(Nc2cc(C(=O)NOCCO)ccc2OC)ncc1C(F)(F)F [Compound I-74, 3-((4-((2-Acrylamidophenyl)amino)-5-(trifluoromethyl)pyrimidin-2-yl)amino)-N-(2-hydroxyethoxy)-4-methoxybenzamide] | 501 to 999 nM | 101 to 500 nM | 101 to 500 nM
C=CC(=O)Nc1ccccc1Nc1nc(NC2CCN(C(C)=O)CC2)ncc1Cl [Compound I-116, N-(2-((2-((1-acetylpiperidin-4-yl)amino)-5-chloropyrimidin-4-yl)amino)phenyl)acrylamide] | 101 to 500 nM | 101 to 500 nM | 101 to 500 nM
C=CC(=O)Nc1ccccc1Nc1nc(NC2CCN(S(C)(=O)=O)CC2)ncc1Cl [Compound I-117, N-(2-((5-chloro-2-((1-(methylsulfonyl)piperidin-4-yl)amino)pyrimidin-4-yl)amino)phenyl)acrylamide] | 101 to 500 nM | 101 to 500 nM | 101 to 500 nM
C=CC(=O)Nc1ccccc1Nc1nc(N[C@H]2CCCN(C=O)C2)ncc1Cl [Compound I-122, (S)—N-(2-((5-chloro-2-((1-formylpiperidin-3-yl)amino)pyrimidin-4-yl)amino)phenyl)acrylamide] | < 100 nM | 101 to 500 nM | < 100 nM
C=CC(=O)Nc1ccccc1Nc1nc(NC2CCN(C=O)CC2)ncc1Cl [Compound I-124, N-(2-((5-chloro-2-((1-formylpiperidin-4-yl)amino)pyrimidin-4-yl)amino)phenyl)acrylamide] | < 100 nM | 101 to 500 nM | 
C=CC(=O)Nc1ccccc1Nc1nc(N[C@H]2CCCN(S(C)(=O)=O)C2)ncc1Cl [Compound I-125, (S)—N-(2-((5-chloro-2-((1-(methylsulfonyl)piperidin-3-yl)amino)pyrimidin-4-yl)amino)phenyl)acrylamide] | 101 to 500 nM | 101 to 500 nM | 
C=CC(=O)Nc1ccccc1Nc1nc(N[C@H]2CCCNC2)ncc1Cl [Compound I-126, (S)—N-(2-((5-chloro-2-(piperidin-3-ylamino)pyrimidin-4-yl)amino)phenyl)acrylamide] | 501 to 999 nM | 501 to 999 nM | 101 to 500 nM
C=CC(=O)Nc1ccccc1Nc1nc(NC2CCC(F)(F)CC2)ncc1Cl [Compound I-127, N-(2-((5-chloro-2-((4,4-difluorocyclohexyl)amino)pyrimidin-4-yl)amino)phenyl)acrylamide] | 101 to 500 nM | 101 to 500 nM | 101 to 500 nM
C=CC(=O)Nc1ccccc1Nc1nc(Nc2ccc(N(CC)C(C)=O)cc2OC)ncc1Cl [Compound I-155, N-(2-((5-chloro-2-((4-(N-ethylacetamido)-2-methoxyphenyl)amino)pyrimidin-4-yl)amino)phenyl)acrylamide] | > 1000 nM | > 1000 nM | 101 to 500 nM
C=CC(=O)Nc1ccccc1Nc1nc(Nc2cc(C(N)=O)ccc2C#N)ncc1Cl [Compound I-192, 3-((4-((2-acrylamidophenyl)amino)-5-chloropyrimidin-2-yl)amino)-4-cyanobenzamide] | < 100 nM | < 100 nM | 
C=CC(=O)Nc1cc(F)ccc1Nc1nc(Nc2ccc(F)cc2C#N)ncc1Cl [Compound I-221, N-(2-((5-chloro-2-((2-cyano-4-fluorophenyl)amino)pyrimidin-4-yl)amino)-5-fluorophenyl)acrylamide] | < 100 nM | 501 to 999 nM | 
C=CC(=O)Nc1ccccc1Nc1nc(Nc2ccc(OCCCNC(=O)CCCC(=O)NCCCOCCOCCOCCCNC(=O)CCCC[C@H]3SC[C@H]4NC(=O)N[C@H]43)cc2OC)ncc1Cl [Compound I-302, N^1-(3-(4-((4-((2-acrylamidophenyl)amino)-5-chloropyrimidin-2-yl)amino)-3-methoxyphenoxy)propyl)-N^5-(15-oxo-19-((3aR,4R,6aS)-2-oxohexahydro-1H-thieno[3,4-d]imidazol-4-yl)-4,7,10-trioxa-14-azanonadecyl)glutaramide] | > 1000 nM | > 1000 nM | 

Reference: patent publication US9561228B2 (Celgene Avilomics Research, Inc., priority 2013, dated 2017)
